Consider one molecule from US20100048545A1, “Compounds and Compositions for Use in the Prevention and Treatment of Disorders of Fat Metabolism and Obesity” (INNODIA INC., priority 2006, published 2010).

Data set [1] has as its system Wistar rats fed HFHS diets. The experiment in a line: Energy expenditure (oxygen consumption) by indirect calorimetry in HFHS fed rats. The data set is classed as in vivo. To be noted: 100 mg/kg oral gavage twice daily, 4 weeks, vs pair fed and HFHS control, p<0.01. The method, then: A study was conducted to determine whether the decrease in adiposity as described above was due to increased energy expenditure. For this study, Wistar rats were randomized into 3 groups (n=10/group) and fed HFHS diets. […] The second group of animals served as pair fed controls, and while not treated with drug, diet in terms of caloric intake was matched to treated animals. The third group was fed a HFHS diet ad libitum without any treatment. After a 4 week period of treatment these animals were assessed by indirect calorimetry with increased oxygen consumption used as an indicator of increased energy expenditure.

Another data set relates to ob/ob mouse. The data set can be described thus: Body weight gain and food consumption of ob/ob mice, 56 days. Particulars: 100 mg/kg twice daily. It counts as in vivo. From the text: The objective of this study was to evaluate the effect of chronic administration of 4-hydroxyisoleucine (4-OH, compound 14a) on food consumption and body weight gain in a genetic model of obesity, the ob/ob mouse. Body weight gain and food consumption were monitored for 1 week prior to the commencement of treatment, and then for the 56 days of treatment.
A total of 16 animals were used in the study. The animals were distributed into 2 groups (1 treated, 1 control group, all on standard chow). Each group was composed of 8 animals. The mice were randomized according to body weight values.
For the eight weeks of treatment, the test agent was dissolved in reverse osmosis water. 4-hydroxyisoleucine was aliquoted and kept at 4° C. Control animals received reverse osmosis water twice daily (group 1). Mice from group 2 were treated twice daily with 4-OH at 100 mg/kg. All groups were treated by oral gavage. Treatment commenced on Day 0 and ended on Day 56 (FIGS. 21A and 21B). Food consumption was measured daily and averaged on a weekly basis beginning one week before the start of treatment as shown in FIG. 21B.

Another data set relates to white adipocytes. The data set can be described thus: Release and uptake of free fatty acids by ex vivo cultured white adipocytes of treated rats. The data set is classed as cell-based, Wistar rats. The source says:
A total of 60 animals were used in the study. The animals were distributed into 6 groups; 1 group was fed standard chow, 1 group was fed a high fat, high sucrose (HFHS) diet with 28 days treatment, 1 untreated control group was fed a HFHS diet, and 1 untreated group was fed a HFHS diet, but with caloric intake restricted to match the caloric intake of the 4-OH treated animals (pair-fed animals). A fifth group was fed a high fat, high sucrose (HFHS) diet with 28 days treatment and received an acute oral administration of 4-OH just prior to experimentation on Day 29 of the study, and a sixth group was fed a HFHS diet, but with caloric intake restricted to match the caloric intake of the 4-OH treated animals receiving an acute oral administration of 4-OH on Day 29 of the study (pair-fed animals). Each group was composed of 10 animals. […] Body weights were measured once weekly from week 1 to week 4 of the study. The white adipose tissues of non-treated and treated rats were collected and cultured ex vivo. After 2 hours of culture, the relative release and uptake of free fatty acids by the adipocytes was measured in absence or presence of insulin, and standardized on the basis of DNA content of the cultures.

For `C[C@@H]([C@H](C)O)[C@H](N)C(=O)O` [Compound 14a, (2S,3R,4S)-4-Hydroxyisoleucine], the “oxygen consumption (energy expenditure), night phase” value in data set [1] is “oxygen consumption was increased”. Further, in the data set on ob/ob mouse, the food consumption entry was “slight decrease in food consumption during the first three weeks of treatment”. Also, the weight gain entry is listed as “significantly reduced” with ob/ob mouse (Day 21 to Day 56, vs control group) and “moderation of weight gain was observed” with ob/ob mouse (course of treatment). In the data set on ob/ob mouse (oral gavage, 56 days), the tolerability of treatment entry was “well tolerated”. Besides, the “fatty acid uptake in presence of insulin” value with white adipocytes (2 hours of culture) is listed as “not significantly different across all groups”. The “basal fatty acid release” value in the data set on white adipocytes (2 hours of culture, absence of insulin, vs pair-fed groups, p<0.01) was “significant increased basal fatty acid release”. Moreover, the “insulin stimulated release of fatty acid” value in the data set with white adipocytes (vs pair fed groups and HFHS control, p<0.01) is given as “significantly increased”.
